{"source": "patent US20100196343A1", "about": "“COMPOSITIONS, METHODS, DEVICES, AND SYSTEMS FOR SKIN CARE” (priority 2008, published 2010)", "tested_on": "skin blemishes", "experiment": "clinical trial: blue light, white light or 4% BPO composition, number of skin blemishes", "type": "in vivo", "conditions": "subjects (n=55 in trial)", "source_text": "In another clinical trial, subjects (n=55) were exposed to (a) blue light], (b) white light, or (c) a composition comprising 4% (w/w) benzyol peroxide (BPO). Subjects were re-evaluated weekly during each treatment regime and results are illustrated in FIG. 25. The number of skin blemishes observed on subjects who received blue light therapy dropped by over 35% in the first week and by 55% in the second week. By comparison, the number of skin blemishes observe on subjects who received BPO dropped by just over 20% by the second week and by only 45% after eleven weeks."}
{"molecule": "O=C(OOC(=O)c1ccccc1)c1ccccc1", "note": "[BPO, benzyol peroxide]", "values": [{"measurement": "number of skin blemishes dropped", "setting": "after eleven weeks", "value": 45, "unit": "%"}, {"measurement": "number of skin blemishes dropped", "setting": "by the second week", "value": "over 20%"}]}
